Assay results from patent US8487098B2, “Synergistic combination of flumetsulam or diclosulam with isothiazolones” (Dow Global Technologies LLC, priority 2010, dated 2013).

Experiments:
Assay type in all cases: cell-based
Conditions in all cases: 4 weeks; for % inhibition: at the total conc given; for Total conc, ppm: minimum inhibitory concentration in paint
[1] = system: Gloeocapsa sp. and Oscillatoria sp. (Gs + Os); assay: Algal efficacy testing, modified ASTM 5589, paint film
Experimental: (§1) A single or blend of biocides was post added into white acrylic latex paint free of biocides to give a maximum total active ingredient/s concentration tested. This paint was then diluted with a biocide free acrylic latex paint to give targeted concentrations for the testing. Depending on the type of biocide blends tested, the total biocides concentrations varies from 200 to 5000 ppm. After biocides addition or dilution, each sample was hand mixed for at least a minute until uniformity is achieved. Each of the paint samples as well as a control sample (containing no biocide) were used to prepare films on black plastic-vinyl chloride/acetate copolymer panels (LENETA, Mahwah, N.J.) using a 3 mil (0.0762 mm) bird bar applicator. The panels were thoroughly dried for at least 2 days avoiding direct exposure to sunlight. Square discs (0.5 inch; 1.27 cm^2) were cut out from each panel and were used as the substrate for fungal and algal efficacy tests. This sample size allowed for an agar border when the sample disc was placed into the well of the test plate. Each sample was tested in duplicate
(§2) The appropriate media (BOLD'S 3N for Chlorophytes, BG-11 for Cyanobacteria, and PDA for fungi) were used to support microbial growth. The test plates were maintained at room temp (25° C.-26° C.), in a cycled light-dark environment, for four weeks for algae. Plates for fungal challenge tests were maintained at 30 C for four weeks. At the end of the incubation period the samples were scored for percent area covered by visible microbial growth.
(§3) Algal Efficacy Testing—Modified ASTM 5589
(§4) ASTM 5589 is a standard accelerated test method for determining resistance of various coatings (including paints) to algal defacement. To accommodate for high-throughput screening, this method was scaled down from petri plates to 6-well plates. A single coupon was placed with a pair of sterile forceps at the center of the agar plug (on top) with the painted surface facing upwards. Algal inoculums were prepared by mixing equal concentrations (1×10^6 cfu/ml) and equal volumes (depending on number of samples to be inoculated) of like growing organisms.
(§5) In Flumetsulam+various IT synergy study, three pool of mixed algae were prepared as the test inoculum, Gloeocapsa sp. and Oscillatoria sp. a mix of cyanobacteria grown on BG-11 media; Chlorella sp., Chlorella kessleri, and Nostoc commune are unicellular chlorphytes that were mixed and grown on Bold media; Trentepohlia aurea, Tretepohlia odorata, and Calotrix parientina are filamentous algae that were mixed and grown on Bold media.
(§6) In Diclosulam+various IT synergy study, only two pools of mixed algae were prepared; Gloeocapsa sp. and Oscillatoria sp. grown on BG-11 media and Chlorella sp., Chlorella kessleri, Nostoc commune, Trentepohlia aurea, Tretepohlia odorata, and Calotrix parientina grown on Bold media
(§7) Each well that contains a tested coupon was inoculated with 400 μl of organism mixture (1×10^6 cfu/ml) making sure that the whole surface (paint film as well as the agar surrounding it) was evenly covered. The plates were incubated at room temp (25° C.-26° C.) with cyclic exposure to light (OTT-Lite model #OTL4012P, 40 Watt, 26 KLumen) and dark phases, for a period of four weeks. The total area covered was evaluated at the end of each week according to percent area covered in 5% increments.
(§8) Synergy Index Calculation
(§9) The SI is calculated based on F. C. Kull et.
(§10) Qa=the concentration of Biocide A in the blend
(§11) QA=The concentration of Biocide A as the only biocide
(§12) Qb=The concentration of Biocide B in the blend
(§13) QB=The concentration of Biocide B as the only biocide
(§14) SI value of <1 in the formula indicates a synergism of the blended biocides exists.
(§15) NE=no end point at the concentration tested that will meet the percent inhibition criteria set in each SI calculation

[2] = system: Aa + Tv + An + Pf + Ap + Ch; assay: Fungal efficacy testing, modified ASTM 5590, paint film, single pool of all fungi
Experimental: as §1, §2
(§16) Fungal Efficacy Testing—Modified ASTM 5590
(§17) ASTM 5590 is a standard accelerated test method for determining resistance of various coatings (including paints) to fungal defacement. To accommodate for high-throughput screening, this method was scaled down from petri plates to 6-well plates. To set up the test, an agar plug was placed at the bottom of each well of the sterile 6-well plate. A single coupon was placed with a pair of sterile forceps at the center of the agar plug (on top) with the painted surface facing upwards. Fungal inoculums were prepared by mixing equal concentrations (1×10^6 cfu/ml) and equal volumes (depending on number of samples to be tested) of like growing organisms. For Flumetsulam+various IT synergy study, three pools of mixed fungi were prepared as the test inoculum. Cladosporium herbarum was mixed with Aureobasidium pullulans; Aspergillus niger was mixed with Penicillium funiculosum and Alternaria alternata was mixed with Trichoderma viride. For Diclosulam+various IT synergy study, all above fungi were mixed as a single pool. Each well was inoculated with 400 μl of organism mixture (1×10^6 cfu/ml) making sure that the whole surface (paint film as well as the agar surrounding it) was evenly covered. The plates were incubated at 30° C. in presence of moisture, for a period of four weeks. The total percent area covered was evaluated and recorded at the end of each week after the 2nd week and recorded in increments of 5%.
as §8, §9, §10, §11, §12, §13, §14, §15

[3] = system: Cp + To + Ta + Cs + Ck + Nc; assay: Algal efficacy testing, modified ASTM 5589, paint film, pool grown on Bold media
Experimental: as §1, §2, §3, §4, §6, §7, §8, §9, §10, §11, §12, §13, §14, §15

[4] = system: Alternaria alternata mixed with Trichoderma viride (AaTv); assay: Fungal efficacy testing, modified ASTM 5590, paint film
Experimental: as §1, §2, §16, §17, §8, §9, §10, §11, §12, §13, §14, §15

[5] = system: Aspergillus niger mixed with Penicillium funiculosum (AnPf); assay: as above
Experimental: as §1, §2, §16, §17, §8, §9, §10, §11, §12, §13, §14, §15

[6] = system: Cladosporium herbarum mixed with Aureobasidium pullulans (ApCh); assay: as above
Experimental: as §1, §2, §16, §17, §8, §9, §10, §11, §12, §13, §14, §15

[7] = system: Chlorella sp., Chlorella kessleri, and Nostoc commune (Cs + Ck + Nc); assay: Algal efficacy testing, modified ASTM 5589, paint film
Experimental: as §1, §2, §3, §4, §5, §7, §8, §9, §10, §11, §12, §13, §14, §15

[8] = system: Trentepohlia aurea, Tretepohlia odorata, and Calotrix parientina (Cp + To + Ta); assay: as above
Experimental: as §1, §2, §3, §4, §5, §7, §8, §9, §10, §11, §12, §13, §14, §15

[9] = Synergy study of Diclosulam and DCOIT
[10] = Synergy study of Diclosulam+OIT
[11] = Flumetsulam:BBIT synergy study, NE=no end point
[12] = Flumetsulam:DCOIT synergy study

Structure (SMILES): CCOc1nc(F)cc2nc(S(=O)(=O)Nc3c(Cl)cccc3Cl)nn12 [Diclosulam, N-(2,6-dichlorophenyl)-5-ethoxy-7-fluoro[1,2,4]triazolo[1,5-c]pyrimidine-2-sulfonamide]
- % inhibition [1, 9]: 100%
- Total conc, ppm [1, 9]: 437.5 ppm
- % inhibition [1, 10]: 100%
- Total conc, ppm [1, 10]: 437.5 ppm
- % inhibition [2, 9]: 40%
- Total conc, ppm [2, 9]: 3500 ppm
- % inhibition [2, 10]: 0%
- Total conc, ppm [2, 10]: 3500 ppm
- % inhibition [3, 9]: 100%
- Total conc, ppm [3, 9]: 437.5 ppm
- % inhibition [3, 10]: 100%
- Total conc, ppm [3, 10]: 437.5 ppm

Structure (SMILES): CCCCn1sc2ccccc2c1=O [BBIT, N-n-butyl-1,2-benzisothiazolin-3-one]
- % inhibition ([4]; Flumetsulam:BBIT synergy study): 0%
- Total conc, ppm [4, 11]: 1150 ppm
- % inhibition ([5]; Flumetsulam:BBIT synergy study): 0%
- Total conc, ppm ([5]; Flumetsulam:BBIT synergy study): 1150 ppm
- % inhibition ([6]; Flumetsulam:BBIT synergy study): 80%
- Total conc, ppm [6, 11]: 575 ppm
- % inhibition ([7]; Flumetsulam:BBIT synergy study): 0%
- Total conc, ppm ([7]; Flumetsulam:BBIT synergy study): 1150 ppm
- % inhibition ([8]; Flumetsulam:BBIT synergy study): 0%
- Total conc, ppm [8, 11]: 1150 ppm
- % inhibition ([1]; Flumetsulam:BBIT synergy study): 0%
- Total conc, ppm ([1]; Flumetsulam:BBIT synergy study): 1150 ppm

Structure (SMILES): Cc1ccn2nc(S(=O)(=O)Nc3c(F)cccc3F)nc2n1 [Flumetsulam, N-(2,6-difluorophenyl)-5-methyl[1,2,4]triazolo[1,5-a]pyrimidine-2-sulfonamide]
- % inhibition ([4]; Flumetsulam:BBIT synergy study): 0%
- Total conc, ppm [4, 11]: 3500 ppm
- % inhibition [4, 12]: 0%
- Total conc, ppm [4, 12]: 3500 ppm
- % inhibition ([4]; Flumetsulam:OIT synergy study): 0%
- Total conc, ppm ([4]; Flumetsulam:OIT synergy study): 3500 ppm
- % inhibition ([5]; Flumetsulam:BBIT synergy study): 0%
- Total conc, ppm ([5]; Flumetsulam:BBIT synergy study): 3500 ppm
- % inhibition [5, 12]: 0%
- Total conc, ppm [5, 12]: 3500 ppm
- % inhibition ([5]; Flumetsulam:OIT synergy study): 65%
- Total conc, ppm ([5]; Flumetsulam:OIT synergy study): 3500 ppm
- % inhibition ([6]; Flumetsulam:BBIT synergy study): 0%
- Total conc, ppm [6, 11]: 3500 ppm
- % inhibition [6, 12]: 90%
- Total conc, ppm [6, 12]: 3500 ppm
- % inhibition ([6]; Flumetsulam:OIT synergy study): 0%
- Total conc, ppm ([6]; Flumetsulam:OIT synergy study): 3500 ppm
- % inhibition ([7]; Flumetsulam:BBIT synergy study): 0%
- Total conc, ppm ([7]; Flumetsulam:BBIT synergy study): 3500 ppm
- % inhibition [7, 12]: 100%
- Total conc, ppm [7, 12]: 1750 ppm
- % inhibition ([7]; Flumetsulam:OIT synergy study): 65%
- Total conc, ppm ([7]; Flumetsulam:OIT synergy study): 2625 ppm
- % inhibition ([8]; Flumetsulam:BBIT synergy study): 0%
- Total conc, ppm [8, 11]: 3500 ppm
- % inhibition [8, 12]: 95%
- Total conc, ppm [8, 12]: 437.5 ppm
- % inhibition ([8]; Flumetsulam:OIT synergy study): 60%
- Total conc, ppm ([8]; Flumetsulam:OIT synergy study): 437.5 ppm
- % inhibition ([1]; Flumetsulam:BBIT synergy study): 0%
- Total conc, ppm ([1]; Flumetsulam:BBIT synergy study): 3500 ppm
- % inhibition [1, 12]: 100%
- Total conc, ppm [1, 12]: 2625 ppm
- % inhibition ([1]; Flumetsulam:OIT synergy study): 90%
- Total conc, ppm ([1]; Flumetsulam:OIT synergy study): 437.5 ppm

Structure (SMILES): CCCCCCCCn1sc(Cl)c(Cl)c1=O [DCOIT, 4,5-dichloro-2-n-octyl-4-isothiazolin-3-one]
- % inhibition [4, 12]: 85%
- Total conc, ppm [4, 12]: 575 ppm
- % inhibition [5, 12]: 100%
- Total conc, ppm [5, 12]: 575 ppm
- % inhibition [6, 12]: 100%
- Total conc, ppm [6, 12]: 862.5 ppm
- % inhibition [7, 12]: 100%
- Total conc, ppm [7, 12]: 1150 ppm
- % inhibition [8, 12]: 100%
- Total conc, ppm [8, 12]: 143.75 ppm
- % inhibition [1, 12]: 100%
- Total conc, ppm [1, 12]: 143.75 ppm
- % inhibition [1, 9]: 100%
- Total conc, ppm [1, 9]: 625 ppm
- % inhibition [2, 9]: 80%
- Total conc, ppm [2, 9]: 625 ppm
- % inhibition [3, 9]: 100%
- Total conc, ppm [3, 9]: 625 ppm

Structure (SMILES): CCCCCCCCn1sccc1=O [OIT, 2-n-octyl-4-isothiazolin-3-one]
- % inhibition ([4]; Flumetsulam:OIT synergy study): 100%
- Total conc, ppm ([4]; Flumetsulam:OIT synergy study): 900 ppm
- % inhibition ([5]; Flumetsulam:OIT synergy study): 100%
- Total conc, ppm ([5]; Flumetsulam:OIT synergy study): 450 ppm
- % inhibition ([6]; Flumetsulam:OIT synergy study): 80%
- Total conc, ppm ([6]; Flumetsulam:OIT synergy study): 900 ppm
- % inhibition ([7]; Flumetsulam:OIT synergy study): 100%
- Total conc, ppm ([7]; Flumetsulam:OIT synergy study): 450 ppm
- % inhibition ([8]; Flumetsulam:OIT synergy study): 100%
- Total conc, ppm ([8]; Flumetsulam:OIT synergy study): 450 ppm
- % inhibition ([1]; Flumetsulam:OIT synergy study): 100%
- Total conc, ppm ([1]; Flumetsulam:OIT synergy study): 450 ppm
- % inhibition [1, 10]: 100%
- Total conc, ppm [1, 10]: 900 ppm
- % inhibition [2, 10]: 100%
- Total conc, ppm [2, 10]: 450 ppm
- % inhibition [3, 10]: 100%
- Total conc, ppm [3, 10]: 900 ppm
